Measurements from ChEMBL document CHEMBL1201862, “PubChem BioAssay data set” (2004).
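Growth conditions: 96-well plates. Treatment: test compound, 48 hours, 5 concentrations. Analysis: linear interpolation between bracketing concentrations; unreached endpoints set to highest concentration. GI50 = concentration required for 50% inhibition of growth.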 Calls of active or inactive are those of the source. Rule as the data show it: active = GI50 up to about 1.1 µM and inactive = higher.

Legend:
Assay in all cases: NCI anticancer screen, dose series, 48 h
UACC-62 = system: UACC-62
SK-MEL-2 = system: SK-MEL-2
NCI-H23 = system: NCI-H23
HL-60 = system: HL-60
CCRF-CEM = system: CCRF-CEM
SF-295 = system: SF-295
HT-29 = system: HT-29
U-251 = system: U-251
K562 = system: K562
EKVX = system: EKVX
KM-20L2 = system: KM-20L2
HOP-92 = system: HOP-92
LOX IMVI = system: LOX IMVI
NCI/ADR-RES = system: NCI/ADR-RES
OVCAR-5 = system: OVCAR-5
M14 = system: M14
ACHN = system: ACHN
786-0 = system: 786-0
MDA-N = system: MDA-N
BT-549 = system: BT-549

SMILES | GI50 (UACC-62) | GI50 (SK-MEL-2) | GI50 (NCI-H23) | GI50 (HL-60) | GI50 (CCRF-CEM) | GI50 (SF-295) | GI50 (HT-29) | GI50 (U-251) | GI50 (K562) | GI50 (EKVX) | GI50 (KM-20L2) | GI50 (HOP-92) | GI50 (LOX IMVI) | GI50 (NCI/ADR-RES) | GI50 (OVCAR-5) | GI50 (M14) | GI50 (ACHN) | GI50 (786-0) | GI50 (MDA-N) | GI50 (BT-549)
C/C(=C/C(=O)Nc1ccccc1)Nc1onc(C)c1C | > 100 µM (inactive) | > 100 µM (inactive) | > 100 µM (inactive) | > 100 µM (inactive) | > 100 µM (inactive) | > 100 µM (inactive) | > 100 µM (inactive) | > 100 µM (inactive) | > 100 µM (inactive) | > 100 µM (inactive) | > 100 µM (inactive) | > 100 µM (inactive) | > 100 µM (inactive) | > 100 µM (inactive) | > 100 µM (inactive) | – | – | – | – | –
COc1cc2c(c(OC)c1OC)-c1ccc(SC)c(=O)cc1[C@@H](NCc1ccc(C#N)cc1)CC2 | 0.00264 µM (active) | 0.00703 µM (active) | 0.00274 µM (active) | 0.00301 µM (active) | 0.00414 µM (active) | 0.00369 µM (active) | 0.00239 µM (active) | 0.0031 µM (active) | 0.00383 µM (active) | 0.00726 µM (active) | 0.00194 µM (active) | 0.0307 µM (active) | 0.00521 µM (active) | – | 0.00736 µM (active) | 0.00326 µM (active) | 0.00612 µM (active) | 0.00528 µM (active) | – | –
CSc1nc2c(ncn2C2OC(CO)C(O)C(O)C2O)c(=O)[nH]1 (centres undefined) | > 100 µM (inactive) | > 100 µM (inactive) | > 100 µM (inactive) | > 100 µM (inactive) | > 100 µM (inactive) | 82.2 µM (inactive) | > 100 µM (inactive) | > 83.8 µM (inactive) | > 100 µM (inactive) | > 100 µM (inactive) | > 100 µM (inactive) | > 100 µM (inactive) | > 100 µM (inactive) | > 100 µM (inactive) | > 100 µM (inactive) | – | – | – | – | –
O=C1NC2OC(C(O)CO)C(O)C2O1 (centres undefined) | > 100 µM (inactive) | > 100 µM (inactive) | > 100 µM (inactive) | > 100 µM (inactive) | > 100 µM (inactive) | > 100 µM (inactive) | > 100 µM (inactive) | > 100 µM (inactive) | > 100 µM (inactive) | > 100 µM (inactive) | > 100 µM (inactive) | > 100 µM (inactive) | > 100 µM (inactive) | – | > 100 µM (inactive) | > 100 µM (inactive) | > 100 µM (inactive) | > 100 µM (inactive) | – | –
O=C[C@@H](CO)O[C@H](C=O)n1cnc2c(=O)nc[nH]c21 | 375 µM (inactive) | 318 µM (inactive) | 243 µM (inactive) | 65.8 µM (inactive) | 77.3 µM (inactive) | 619 µM (inactive) | 486 µM (inactive) | 748 µM (inactive) | 83.9 µM (inactive) | 357 µM (inactive) | 426 µM (inactive) | 153 µM (inactive) | 86.9 µM (inactive) | 438 µM (inactive) | 634 µM (inactive) | 505 µM (inactive) | 540 µM (inactive) | 607 µM (inactive) | 108 µM (inactive) | 282 µM (inactive)
